Test results taken from patent publication US20120010075A1 (priority 2009, published 2012).

test system: Leptosphaeria nodorum (LEPTNO); experiment: In vitro fungitoxicity of hydrazones with and without copper towards Leptosphaeria nodorum (Example 26); format: cell-based; settings: Parastagonospora nodorum, 72 h, compound 0.05 μg/mL, copper-minus medium, 72 h at 25° C.; read-out: LEPTNO % Inhn. Minus Copper Observed

SMILES	inhibition of growth at 0.05 µg/mL
O=C(N/N=C/c1ccccc1O)c1ccc(-c2ccccc2)cc1 [Example 183]	0%
COc1ccc(O)c(/C=N/NC(=O)c2ccc(Cl)cc2)c1 [Example 207]	0%
O=C(Cc1ccccc1)N/N=C/c1cc(Cl)cc(Br)c1O [Example 210]	1.9%

same assay, conditions: Parastagonospora nodorum, 72 h, compound 0.156 μg/mL, copper-minus medium, 72 h at 25° C.; read-out: LEPTNO % Inhn. Minus Copper Observed

SMILES	inhibition of growth at 0.156 µg/mL
Cc1ccc(/C=N/NC(=O)c2ccc(C(C)C)cc2)c(O)c1 [Example 14]	2.9%

same assay, conditions: Parastagonospora nodorum, 72 h, compound 0.2 μg/mL, copper-minus medium, 72 h at 25° C.; read-out: LEPTNO % Inhn. Minus Copper Observed

SMILES	inhibition of growth at 0.2 µg/mL
Oc1c(Cl)cc(Cl)cc1/C=N/NC(=S)c1ccccc1 [Example 52]	12.3%

same assay, conditions: Parastagonospora nodorum, 72 h, copper-minus medium; test compound Concn. 0.05 μg/mL; 72 h at 25° C.; read-out: LEPTNO % Inhn. Minus Copper Observed

SMILES	inhibition of growth at 0.05 µg/mL
C/C(=N\NC(=O)c1ccc(Br)cc1)c1cc(F)cc(F)c1O [Example 580]	3.1%
C/C(=N\NC(=O)c1ccc(C(F)(F)F)cc1)c1cc(F)cc(F)c1O [Example 581]	13.6%
C/C(=N\NC(=O)c1ccccc1Br)c1cc(F)cc(F)c1O [Example 582]	12.2%
C/C(=N\NC(=O)c1ccccc1O)c1cc(F)cc(F)c1O [Example 583]	13.2%
COc1cc(O)c(/C(C)=N/NC(=O)c2ccccc2C)c(OC)c1 [Example 584]	3%
COc1cc(O)c(/C(C)=N/NC(=O)c2cccc(C)c2)c(OC)c1 [Example 585]	6.3%
COc1cc(O)c(/C(C)=N/NC(=O)c2ccccc2O)c(OC)c1 [Example 586]	0%
O=C(N/N=C(/c1cc(Cl)cc(Cl)c1O)C(F)(F)F)c1ccccc1 [Example 587]	6.2%
O=C(N/N=C(/c1cc(Cl)cc(Cl)c1O)C1CC1)c1ccccc1 [Example 589]	8.7%
CC/C(=N\NC(=O)c1ccccc1)c1cc(Cl)cc(Cl)c1O [Example 590]	10%
O=C(N/N=C(/c1ccccc1O)C(F)(F)F)c1ccccc1 [Example 591]	0%
CC(C)(C)/C(=N\NC(=O)c1ccccc1)c1ccccc1O [Example 592]	0%

same assay, conditions: compound 0.05 μg/mL, copper-minus medium, 72 h at 25° C.

SMILES	LEPTNO % Inhn. Minus Copper Observed
Cc1ccc(C(=O)N/N=C/c2cc(Br)cc(Br)c2O)c(C)c1 [Example 28]	7.0%

same assay, conditions: compound 0.05 μg/mL, copper-plus medium (CuCl2.2H2O), 72 h at 25° C.

SMILES	LEPTNO % Inhn. Plus Copper Observed
Cc1ccc(C(=O)N/N=C/c2cc(Br)cc(Br)c2O)c(C)c1 [Example 28]	96.8%
O=C(N/N=C/c1ccccc1O)c1ccc(-c2ccccc2)cc1 [Example 183]	96.7%
COc1ccc(O)c(/C=N/NC(=O)c2ccc(Cl)cc2)c1 [Example 207]	95.3%
O=C(Cc1ccccc1)N/N=C/c1cc(Cl)cc(Br)c1O [Example 210]	94.1%

same assay, conditions: compound 0.156 μg/mL, copper-plus medium (CuCl2.2H2O), 72 h at 25° C.

SMILES	LEPTNO % Inhn. Plus Copper Observed
Cc1ccc(/C=N/NC(=O)c2ccc(C(C)C)cc2)c(O)c1 [Example 14]	59.1%

same assay, conditions: compound 0.2 μg/mL, copper-plus medium (CuCl2.2H2O), 72 h at 25° C.

SMILES	LEPTNO % Inhn. Plus Copper Observed
Oc1c(Cl)cc(Cl)cc1/C=N/NC(=S)c1ccccc1 [Example 52]	96.4%

same assay, conditions: copper-plus medium (CuCl2 10 μM); test compound Concn. 0.05 μg/mL; 72 h at 25° C.

SMILES	LEPTNO % Inhn. Plus Copper Observed
C/C(=N\NC(=O)c1ccc(Br)cc1)c1cc(F)cc(F)c1O [Example 580]	98.1%
C/C(=N\NC(=O)c1ccc(C(F)(F)F)cc1)c1cc(F)cc(F)c1O [Example 581]	98.2%
C/C(=N\NC(=O)c1ccccc1Br)c1cc(F)cc(F)c1O [Example 582]	97.8%
C/C(=N\NC(=O)c1ccccc1O)c1cc(F)cc(F)c1O [Example 583]	98.0%
COc1cc(O)c(/C(C)=N/NC(=O)c2ccccc2C)c(OC)c1 [Example 584]	11.8%
COc1cc(O)c(/C(C)=N/NC(=O)c2cccc(C)c2)c(OC)c1 [Example 585]	86.3%
COc1cc(O)c(/C(C)=N/NC(=O)c2ccccc2O)c(OC)c1 [Example 586]	87.3%
O=C(N/N=C(/c1cc(Cl)cc(Cl)c1O)C(F)(F)F)c1ccccc1 [Example 587]	96.6%
O=C(N/N=C(/c1cc(Cl)cc(Cl)c1O)C1CC1)c1ccccc1 [Example 589]	97.9%
CC/C(=N\NC(=O)c1ccccc1)c1cc(Cl)cc(Cl)c1O [Example 590]	98.6%
O=C(N/N=C(/c1ccccc1O)C(F)(F)F)c1ccccc1 [Example 591]	9.9%
CC(C)(C)/C(=N\NC(=O)c1ccccc1)c1ccccc1O [Example 592]	25.4%

test system: Phytophthora infestans; experiment: not given; format: in vivo, Phytophthora infestans on tomato; settings: hydrazone 50 ppm + 50 μM CuCl2.2H2O, applied 24 h before inoculation, assessed 7 days after inoculation, tomato

SMILES	TLB % Control
Cc1ccc(/C=N/NC(=O)c2ccc(C(C)C)cc2)c(O)c1 [Example 14]	7.5%
Cc1ccc(C(=O)N/N=C/c2cc(Br)cc(Br)c2O)c(C)c1 [Example 28]	62.7%
O=C(N/N=C/c1ccccc1O)c1ccc(-c2ccccc2)cc1 [Example 183]	66.7%
COc1ccc(O)c(/C=N/NC(=O)c2ccc(Cl)cc2)c1 [Example 207]	52.7%
O=C(Cc1ccccc1)N/N=C/c1cc(Cl)cc(Br)c1O [Example 210]	37.0%

same assay, conditions: hydrazone 50 ppm with 50 μM CuCl2.2H2O, applied 24 h before inoculation; assessed 7 days after inoculation; tomato late blight

SMILES	TLB % Control
C/C(=N\NC(=O)c1ccc(Br)cc1)c1cc(F)cc(F)c1O [Example 580]	97.0%
C/C(=N\NC(=O)c1ccc(C(F)(F)F)cc1)c1cc(F)cc(F)c1O [Example 581]	93.0%
C/C(=N\NC(=O)c1ccccc1Br)c1cc(F)cc(F)c1O [Example 582]	94.0%
C/C(=N\NC(=O)c1ccccc1O)c1cc(F)cc(F)c1O [Example 583]	100.0%
COc1cc(O)c(/C(C)=N/NC(=O)c2ccccc2C)c(OC)c1 [Example 584]	7.6%
COc1cc(O)c(/C(C)=N/NC(=O)c2cccc(C)c2)c(OC)c1 [Example 585]	62.0%
COc1cc(O)c(/C(C)=N/NC(=O)c2ccccc2O)c(OC)c1 [Example 586]	31.0%
O=C(N/N=C(/c1cc(Cl)cc(Cl)c1O)C(F)(F)F)c1ccccc1 [Example 587]	2.4%
O=C(N/N=C(/c1cc(Cl)cc(Cl)c1O)C1CC1)c1ccccc1 [Example 589]	61.0%
CC/C(=N\NC(=O)c1ccccc1)c1cc(Cl)cc(Cl)c1O [Example 590]	88.0%
O=C(N/N=C(/c1ccccc1O)C(F)(F)F)c1ccccc1 [Example 591]	11.0%
CC(C)(C)/C(=N\NC(=O)c1ccccc1)c1ccccc1O [Example 592]	1.4%

test system: Phytophthora capsici; experiment: In vitro fungitoxicity of hydrazones with and without copper towards Phytophthora capsici (Example 28, Table 3); format: cell-based; settings: 0.039 μg/mL; copper-plus AS medium (CuCl2, 50 μM); 48 h

SMILES	% Inhn Plus copper Observed
Cc1ccc(/C=N/NC(=O)c2ccc(C(C)C)cc2)c(O)c1 [Example 14]	87.2%
Cc1ccc(C(=O)N/N=C/c2cc(Br)cc(Br)c2O)c(C)c1 [Example 28]	93.8%
Oc1c(Cl)cc(Cl)cc1/C=N/NC(=S)c1ccccc1 [Example 52]	91.2%
O=C(N/N=C/c1ccccc1O)c1ccc(-c2ccccc2)cc1 [Example 183]	88.9%
COc1ccc(O)c(/C=N/NC(=O)c2ccc(Cl)cc2)c1 [Example 207]	88.9%
O=C(Cc1ccccc1)N/N=C/c1cc(Cl)cc(Br)c1O [Example 210]	92.7%

same assay, conditions: Phytophthora capsici; 0.039 μg/mL; copper-minus AS medium; 48 h; read-out: % Inhn Minus copper Observed

SMILES	inhibition of growth at 0.039 µg/mL
Cc1ccc(/C=N/NC(=O)c2ccc(C(C)C)cc2)c(O)c1 [Example 14]	0%
Cc1ccc(C(=O)N/N=C/c2cc(Br)cc(Br)c2O)c(C)c1 [Example 28]	11.4%
Oc1c(Cl)cc(Cl)cc1/C=N/NC(=S)c1ccccc1 [Example 52]	40.6%
O=C(N/N=C/c1ccccc1O)c1ccc(-c2ccccc2)cc1 [Example 183]	0%
COc1ccc(O)c(/C=N/NC(=O)c2ccc(Cl)cc2)c1 [Example 207]	0%
O=C(Cc1ccccc1)N/N=C/c1cc(Cl)cc(Br)c1O [Example 210]	36.6%

test system: not given; experiment: not given; settings: not given

SMILES	melting point
C/C(=N\NC(=O)c1ccc(Br)cc1)c1cc(F)cc(F)c1O [Example 580]	268 to 270 °C
C/C(=N\NC(=O)c1ccc(C(F)(F)F)cc1)c1cc(F)cc(F)c1O [Example 581]	287 to 291 °C
C/C(=N\NC(=O)c1ccccc1Br)c1cc(F)cc(F)c1O [Example 582]	190 to 195 °C
C/C(=N\NC(=O)c1ccccc1O)c1cc(F)cc(F)c1O [Example 583]	308 to 323 °C
COc1cc(O)c(/C(C)=N/NC(=O)c2ccccc2C)c(OC)c1 [Example 584]	269 to 274 °C
COc1cc(O)c(/C(C)=N/NC(=O)c2cccc(C)c2)c(OC)c1 [Example 585]	207 to 209 °C
COc1cc(O)c(/C(C)=N/NC(=O)c2ccccc2O)c(OC)c1 [Example 586]	182 to 199 °C
O=C(N/N=C(/c1cc(Cl)cc(Cl)c1O)C(F)(F)F)c1ccccc1 [Example 587]	195 to 196 °C
O=C(N/N=C(/c1cc(Cl)cc(Cl)c1O)C1CC1)c1ccccc1 [Example 589]	218 to 219 °C
CC/C(=N\NC(=O)c1ccccc1)c1cc(Cl)cc(Cl)c1O [Example 590]	214 to 215 °C
O=C(N/N=C(/c1ccccc1O)C(F)(F)F)c1ccccc1 [Example 591]	208 to 210 °C
CC(C)(C)/C(=N\NC(=O)c1ccccc1)c1ccccc1O [Example 592]	241 to 243 °C
